Assay in all cases: Kinase selectivity, scanMAX Kinase assay panel (DiscoverX), % control at 1 uM
Format in all cases: binding

Assay [1] has as its target T1, scanMAX Kinase assay panel (Homo sapiens, UniProt O14578).
T1 construct: purchased DiscoverX
Particulars: CIT; 1 uM; read-out: Percent Control (%). The method, boiled down: (§1)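 Binding across the scanMAX kinase panel was tested at 1 uM compound. % control = (compound − positive control)/(negative control − positive control) × 100; below 35 counted as active.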

Assay [2] concerns the target T2, scanMAX Kinase assay panel (Homo sapiens, UniProt P08922).
T2 construct: purchased DiscoverX
Particulars: ROS1; 1 uM; read-out: Percent Control (%). The method, boiled down: as §1

Assay [3] has as its target T3, scanMAX Kinase assay panel (Homo sapiens, UniProt P29322).
T3 construct: purchased DiscoverX
T3 sequence (P29322 28-1005): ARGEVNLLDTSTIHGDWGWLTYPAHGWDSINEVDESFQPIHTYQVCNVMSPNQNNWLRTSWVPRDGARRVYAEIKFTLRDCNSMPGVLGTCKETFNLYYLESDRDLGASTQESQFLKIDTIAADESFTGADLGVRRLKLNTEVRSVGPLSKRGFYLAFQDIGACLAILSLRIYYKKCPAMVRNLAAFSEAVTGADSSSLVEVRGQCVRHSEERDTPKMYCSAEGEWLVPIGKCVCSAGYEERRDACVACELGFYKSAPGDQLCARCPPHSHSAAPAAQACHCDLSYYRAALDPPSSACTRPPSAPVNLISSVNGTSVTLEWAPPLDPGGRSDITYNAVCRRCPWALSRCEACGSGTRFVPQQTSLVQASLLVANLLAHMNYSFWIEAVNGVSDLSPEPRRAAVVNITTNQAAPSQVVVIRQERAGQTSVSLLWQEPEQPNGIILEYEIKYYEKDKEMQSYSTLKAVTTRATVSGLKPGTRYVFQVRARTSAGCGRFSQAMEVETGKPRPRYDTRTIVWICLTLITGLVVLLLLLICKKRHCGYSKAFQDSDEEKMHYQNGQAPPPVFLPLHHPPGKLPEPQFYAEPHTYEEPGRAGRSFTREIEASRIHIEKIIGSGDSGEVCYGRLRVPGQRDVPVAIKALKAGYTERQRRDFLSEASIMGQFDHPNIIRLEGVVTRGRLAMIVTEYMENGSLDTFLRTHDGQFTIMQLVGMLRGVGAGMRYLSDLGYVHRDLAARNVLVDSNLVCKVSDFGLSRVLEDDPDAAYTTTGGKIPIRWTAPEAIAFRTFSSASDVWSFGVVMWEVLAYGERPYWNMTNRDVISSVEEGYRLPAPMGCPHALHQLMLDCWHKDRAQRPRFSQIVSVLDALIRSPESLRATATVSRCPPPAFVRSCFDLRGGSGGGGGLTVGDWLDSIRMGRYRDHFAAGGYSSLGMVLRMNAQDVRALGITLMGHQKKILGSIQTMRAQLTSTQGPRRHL
Particulars: EPHA8; 1 uM; read-out: Percent Control (%). An outline of the steps: as §1

Assay [4] addresses T4, scanMAX Kinase assay panel (Homo sapiens, UniProt P57078).
T4 construct: purchased DiscoverX
T4 sequence (P57078 1-832): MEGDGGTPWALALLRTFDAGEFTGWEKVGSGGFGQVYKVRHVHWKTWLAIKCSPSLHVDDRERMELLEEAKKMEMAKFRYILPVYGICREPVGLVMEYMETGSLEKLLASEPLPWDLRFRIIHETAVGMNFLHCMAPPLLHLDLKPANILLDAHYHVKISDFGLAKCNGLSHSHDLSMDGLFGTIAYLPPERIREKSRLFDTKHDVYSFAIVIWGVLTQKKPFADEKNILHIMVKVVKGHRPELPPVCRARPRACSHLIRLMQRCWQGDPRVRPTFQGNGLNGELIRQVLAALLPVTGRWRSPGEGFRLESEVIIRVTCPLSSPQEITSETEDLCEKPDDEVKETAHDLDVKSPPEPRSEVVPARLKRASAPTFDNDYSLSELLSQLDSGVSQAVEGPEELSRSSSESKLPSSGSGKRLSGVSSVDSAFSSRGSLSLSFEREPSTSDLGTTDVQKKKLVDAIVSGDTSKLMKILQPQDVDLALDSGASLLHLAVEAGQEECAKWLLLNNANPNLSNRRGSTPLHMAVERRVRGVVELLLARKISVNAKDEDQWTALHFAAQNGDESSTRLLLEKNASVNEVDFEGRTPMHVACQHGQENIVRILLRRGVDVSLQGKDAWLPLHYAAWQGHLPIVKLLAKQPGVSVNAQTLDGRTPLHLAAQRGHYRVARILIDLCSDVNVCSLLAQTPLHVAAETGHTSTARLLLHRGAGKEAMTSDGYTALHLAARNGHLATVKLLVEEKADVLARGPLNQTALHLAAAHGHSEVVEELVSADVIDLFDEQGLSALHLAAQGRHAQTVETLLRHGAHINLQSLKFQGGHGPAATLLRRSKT
Particulars: RIPK4; 1 uM; read-out: Percent Control (%). An outline of the steps:
as §1

For assay [5], the target named is T5, scanMAX Kinase assay panel (Homo sapiens, UniProt Q96RR4).
T5 construct: purchased DiscoverX
T5 sequence (Q96RR4 whole entry): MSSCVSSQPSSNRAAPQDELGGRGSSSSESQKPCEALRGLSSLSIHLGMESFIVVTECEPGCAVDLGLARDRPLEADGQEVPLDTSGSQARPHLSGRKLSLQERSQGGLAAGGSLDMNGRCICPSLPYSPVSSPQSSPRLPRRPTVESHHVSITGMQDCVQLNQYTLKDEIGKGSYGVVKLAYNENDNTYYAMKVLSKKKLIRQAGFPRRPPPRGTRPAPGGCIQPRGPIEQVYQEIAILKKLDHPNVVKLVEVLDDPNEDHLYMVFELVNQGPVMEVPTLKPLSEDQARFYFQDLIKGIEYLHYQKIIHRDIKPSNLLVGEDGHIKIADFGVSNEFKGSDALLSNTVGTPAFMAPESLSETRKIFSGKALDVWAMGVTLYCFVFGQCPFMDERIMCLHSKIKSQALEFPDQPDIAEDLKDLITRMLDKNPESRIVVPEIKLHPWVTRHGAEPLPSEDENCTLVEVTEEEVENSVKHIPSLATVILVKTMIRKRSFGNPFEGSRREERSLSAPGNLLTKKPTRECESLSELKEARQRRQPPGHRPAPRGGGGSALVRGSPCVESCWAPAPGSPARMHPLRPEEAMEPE
Particulars: CAMKK2; 1 uM; read-out: Percent Control (%). An outline of the steps:
as §1

The target in assay [6] is T6, scanMAX Kinase assay panel (Homo sapiens, UniProt Q9BQI3).
T6 construct: purchased DiscoverX
T6 sequence (Q9BQI3 whole entry): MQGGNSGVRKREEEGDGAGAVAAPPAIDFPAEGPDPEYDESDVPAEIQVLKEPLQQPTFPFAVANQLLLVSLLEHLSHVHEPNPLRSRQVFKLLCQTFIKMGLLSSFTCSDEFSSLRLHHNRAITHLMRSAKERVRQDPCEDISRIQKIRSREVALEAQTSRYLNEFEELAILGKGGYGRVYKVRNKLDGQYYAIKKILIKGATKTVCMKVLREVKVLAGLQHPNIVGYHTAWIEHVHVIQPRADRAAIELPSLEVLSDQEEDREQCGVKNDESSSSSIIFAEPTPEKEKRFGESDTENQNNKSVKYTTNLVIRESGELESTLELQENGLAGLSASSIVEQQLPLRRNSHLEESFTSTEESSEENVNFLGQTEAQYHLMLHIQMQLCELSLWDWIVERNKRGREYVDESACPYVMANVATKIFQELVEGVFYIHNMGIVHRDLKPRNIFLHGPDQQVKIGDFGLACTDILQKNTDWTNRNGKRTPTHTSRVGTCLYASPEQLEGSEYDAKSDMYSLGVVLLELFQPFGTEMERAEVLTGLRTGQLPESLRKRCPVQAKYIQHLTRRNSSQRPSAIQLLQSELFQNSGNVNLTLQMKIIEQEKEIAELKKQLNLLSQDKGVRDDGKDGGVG
Particulars: EIF2AK1; 1 uM; read-out: Percent Control (%). An outline of the steps: as §1

Assay [7] deals with T7, scanMAX Kinase assay panel (Mycobacterium tuberculosis, UniProt P9WI81).
T7 construct: purchased DiscoverX
T7 sequence (P9WI81 whole entry): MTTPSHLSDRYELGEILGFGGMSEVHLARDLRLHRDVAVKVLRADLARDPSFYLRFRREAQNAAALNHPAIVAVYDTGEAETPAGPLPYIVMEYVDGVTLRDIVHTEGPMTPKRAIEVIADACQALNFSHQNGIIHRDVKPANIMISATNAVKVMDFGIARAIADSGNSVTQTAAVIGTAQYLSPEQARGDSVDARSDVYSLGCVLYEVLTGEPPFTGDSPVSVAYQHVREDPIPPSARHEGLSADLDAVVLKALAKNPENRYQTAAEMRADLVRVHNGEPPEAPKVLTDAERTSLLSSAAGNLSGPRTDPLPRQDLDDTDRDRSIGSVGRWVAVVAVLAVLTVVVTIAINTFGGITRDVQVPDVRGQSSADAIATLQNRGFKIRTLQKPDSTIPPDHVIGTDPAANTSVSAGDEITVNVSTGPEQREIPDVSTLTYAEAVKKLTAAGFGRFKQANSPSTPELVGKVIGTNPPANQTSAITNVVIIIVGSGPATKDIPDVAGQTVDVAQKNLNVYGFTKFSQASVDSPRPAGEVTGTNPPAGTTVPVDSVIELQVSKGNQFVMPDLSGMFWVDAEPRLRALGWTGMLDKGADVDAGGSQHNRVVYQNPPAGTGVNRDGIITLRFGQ
Particulars: read-out: Percent Control (%). The method, boiled down: as §1

T2 sequence (P08922 28-2347): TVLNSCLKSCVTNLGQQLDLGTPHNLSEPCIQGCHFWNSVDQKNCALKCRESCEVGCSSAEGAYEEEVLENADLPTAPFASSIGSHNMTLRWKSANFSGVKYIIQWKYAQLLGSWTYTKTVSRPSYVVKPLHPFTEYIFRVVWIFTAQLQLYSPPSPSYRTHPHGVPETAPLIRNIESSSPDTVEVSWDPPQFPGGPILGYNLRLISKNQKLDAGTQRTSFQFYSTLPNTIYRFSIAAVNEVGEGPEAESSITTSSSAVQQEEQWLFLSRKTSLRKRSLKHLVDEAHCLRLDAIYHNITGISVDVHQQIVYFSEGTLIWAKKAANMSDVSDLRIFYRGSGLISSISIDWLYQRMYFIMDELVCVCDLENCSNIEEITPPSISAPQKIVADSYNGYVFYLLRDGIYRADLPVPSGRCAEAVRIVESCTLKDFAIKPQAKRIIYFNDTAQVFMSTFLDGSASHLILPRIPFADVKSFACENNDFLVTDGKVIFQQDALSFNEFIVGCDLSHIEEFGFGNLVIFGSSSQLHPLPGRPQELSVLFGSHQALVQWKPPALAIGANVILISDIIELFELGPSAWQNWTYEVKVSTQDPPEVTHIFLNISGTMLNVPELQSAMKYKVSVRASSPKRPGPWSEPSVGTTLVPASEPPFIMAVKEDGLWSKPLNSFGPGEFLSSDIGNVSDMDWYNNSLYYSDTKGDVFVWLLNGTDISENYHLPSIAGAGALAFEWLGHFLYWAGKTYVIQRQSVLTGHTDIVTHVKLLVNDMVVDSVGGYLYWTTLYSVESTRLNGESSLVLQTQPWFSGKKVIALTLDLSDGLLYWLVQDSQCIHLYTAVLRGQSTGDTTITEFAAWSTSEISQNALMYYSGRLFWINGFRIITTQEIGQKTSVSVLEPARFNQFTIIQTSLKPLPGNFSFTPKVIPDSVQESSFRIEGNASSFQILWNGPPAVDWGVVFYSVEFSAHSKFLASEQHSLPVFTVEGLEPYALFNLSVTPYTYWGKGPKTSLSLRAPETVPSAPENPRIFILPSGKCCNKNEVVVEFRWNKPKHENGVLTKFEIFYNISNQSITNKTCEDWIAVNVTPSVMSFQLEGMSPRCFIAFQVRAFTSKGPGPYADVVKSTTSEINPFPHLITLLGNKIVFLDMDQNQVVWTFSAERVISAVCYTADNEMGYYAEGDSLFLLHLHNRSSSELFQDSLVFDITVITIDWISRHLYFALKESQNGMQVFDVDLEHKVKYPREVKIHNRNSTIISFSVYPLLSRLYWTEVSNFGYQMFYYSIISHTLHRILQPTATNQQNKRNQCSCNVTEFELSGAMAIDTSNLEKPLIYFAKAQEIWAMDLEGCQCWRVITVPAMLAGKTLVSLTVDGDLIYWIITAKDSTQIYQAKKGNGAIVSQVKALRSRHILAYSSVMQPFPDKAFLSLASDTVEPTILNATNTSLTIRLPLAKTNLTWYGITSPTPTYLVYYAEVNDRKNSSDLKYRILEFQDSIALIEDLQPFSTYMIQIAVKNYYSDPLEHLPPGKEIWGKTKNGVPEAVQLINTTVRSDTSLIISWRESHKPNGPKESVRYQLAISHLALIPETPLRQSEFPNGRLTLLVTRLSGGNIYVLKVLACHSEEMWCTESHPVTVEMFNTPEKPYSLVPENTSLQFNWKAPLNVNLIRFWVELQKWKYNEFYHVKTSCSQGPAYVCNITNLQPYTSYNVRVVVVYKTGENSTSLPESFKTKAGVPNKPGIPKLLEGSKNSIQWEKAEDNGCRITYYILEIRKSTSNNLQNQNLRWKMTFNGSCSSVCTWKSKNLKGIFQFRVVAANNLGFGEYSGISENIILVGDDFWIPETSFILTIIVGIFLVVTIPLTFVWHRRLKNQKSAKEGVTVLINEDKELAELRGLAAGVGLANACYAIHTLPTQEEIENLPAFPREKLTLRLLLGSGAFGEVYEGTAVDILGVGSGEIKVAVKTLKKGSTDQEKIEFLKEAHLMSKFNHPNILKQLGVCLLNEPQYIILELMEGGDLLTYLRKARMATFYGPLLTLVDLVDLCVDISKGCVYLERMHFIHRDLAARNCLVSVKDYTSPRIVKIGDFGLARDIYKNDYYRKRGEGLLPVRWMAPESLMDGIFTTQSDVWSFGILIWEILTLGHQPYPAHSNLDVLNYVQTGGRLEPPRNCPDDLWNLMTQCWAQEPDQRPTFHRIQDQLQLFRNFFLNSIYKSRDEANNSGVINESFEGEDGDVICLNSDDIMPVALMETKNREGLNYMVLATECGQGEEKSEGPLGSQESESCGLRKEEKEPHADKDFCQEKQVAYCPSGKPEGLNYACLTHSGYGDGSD

On to `Cc1ccc(C(=O)Nc2ccc(CN3CCN(C)CC3)c(C(F)(F)F)c2)cc1C#Cc1cnc2c(Nc3cnn(C)c3)cccn12` [Example 1, 4-methyl-3-((8-((1-methyl-1H-pyrazol-4-yl)amino)imidazo[1,2-a]pyridin-3-yl)ethynyl)-N-(4-((4-methylpiperazin-1-yl)methyl)-3-(trifluoromethyl)phenyl)benzamide], for which the remaining binding at 1 µM in assay [1] turned out to be 0%; in assay [2], 39%; in assay [3] it was 0%; in assay [4], 13%; in assay [5], 32%; in assay [6], 67%. Further, in assay [7], the remaining binding at 1 µM was determined as 95%.

For `Cc1ccc(NC(=O)C2(C(=O)Nc3ccc(F)cc3)CC2)cc1C#Cc1cnc2c(Nc3cnn(C(C)C)c3)cccn12` [Example 78], the remaining binding at 1 µM is 100% in assay [1]; 92% in assay [2]; 46% in assay [3]; 100% in assay [4]; 100% in assay [5]; 94% in assay [6]. Moreover, the remaining binding at 1 µM in assay [7] turned out to be 97%.

For `Cc1cn(-c2cc(NC(=O)c3ccc(C)c(C#Cc4cnc5c(Nc6cnn(C)c6)cccn45)c3)cc(C(F)(F)F)c2)cn1` [Example 12, 4-methyl-N-(3-(4-methyl-1H-imidazol-1-yl)-5-(trifluoromethyl)phenyl)-3-((8-((1-methyl-1H-pyrazol-4-yl)amino)imidazo[1,2-a]pyridin-3-yl)ethynyl)benzamide], the remaining binding at 1 µM in assay [1] amounted to 0%; in assay [2], 51%; in assay [3], 1%; in assay [4], 100%; in assay [5] it was 77%; in assay [6], 95%. The remaining binding at 1 µM in assay [7] came to 100%.

Source of the values: patent publication US10870647B2, “Imidazopyridine derivative, method for preparing same, and pharmaceutical composition containing same as active ingredient for preventing or treating cancer” (DAEGU-GYEONGBUK MEDICAL INNOVATION FOUNDATION, priority 2016, dated 2020).
